pEC50: −log10 of the molar value.

Series [1] can be described thus: Cytotoxicity, HepG2 cells, Resazurin assay. In kind it is cell-based. As to conditions: human. For orientation: The colour change of resazurin is a common sign of viable cells or microbes.
A further series concerns HBV. In words: anti HBV activity, HepG2.117 inducibly HBV producing cell line (Tet-off), intracellular HBV DNA by realtime PCR. The conditions noted are these: Hepatitis B virus, 72 h, HepG2.117 cells, 3 days of treatment. In kind it is cell-based.

On to `C[C@@H](NS(=O)(=O)c1cn(C)c(C(=O)Nc2ccnc(C#N)c2F)c1Cl)C(C)(F)F` [Compound 151, 3-chloro-N-(2-cyano-3-fluoro-4-pyridyl)-4-[[(1R)-2,2-difluoro-1-methyl-propyl]sulfamoyl]-1-methyl-pyrrole-2-carboxamide], for which the CC50 at 4 days in series [1] was more than 25000 nM. Further, in the series on HBV, the pEC50 is 7.52.

Compound `C[C@@H](NS(=O)(=O)c1cn(C)c(C(=O)Nc2ccnc(Br)c2F)c1F)C(F)(F)F` [Compound 153, N-(2-bromo-3-fluoro-4-pyridyl)-3-fluoro-1-methyl-4-[[(1R)-2,2,2-trifluoro-1-methyl-ethyl]sulfamoyl]pyrrole-2-carboxamide] returned a CC50 at 4 days in series [1] of more than 25000 nM. This compound also had a negative-log EC50 (pEC50) with HBV of 7.70.

Take `C[C@@H](NS(=O)(=O)c1cn(C)c(C(=O)Nc2cc(F)ncc2F)c1Cl)C(F)(F)F` [Compound 140, 3-chloro-N-(2,5-difluoro-4-pyridyl)-1-methyl-4-[[(1R)-2,2,2-trifluoro-1-methyl-ethyl]sulfamoyl]pyrrole-2-carboxamide]: in series [1], the CC50 at 4 days was more than 25000 nM. In addition, in the series with HBV, the pEC50 is 6.70.

`Cn1cc(S(=O)(=O)NC2(C(F)(F)F)CCC2)c(Cl)c1C(=O)Nc1ccnc(F)c1` [Compound 111, 3-chloro-N-(2-fluoro-4-pyridyl)-1-methyl-4-[[1-(trifluoromethyl)cyclobutyl]sulfamoyl]pyrrole-2-carboxamide] displayed a CC50 at 4 days in series [1] of more than 25000 nM. This compound also showed a pEC50 in the series on HBV of 7.52.

As for `CC(C)NS(=O)(=O)c1cn(C)c(C(=O)Nc2ccnc(C#N)c2)c1F` [Compound 27, N-(2-cyano-4-pyridyl)-3-fluoro-4-(isopropylsulfamoyl)-1-methyl-pyrrole-2-carboxamide], in series [1], the CC50 at 4 days is more than 25000 nM. This compound showed a negative logarithm of the EC50 (pEC50) in the series with HBV of 7.00.

Consider `CC(C)NS(=O)(=O)c1cn(C)c(C(=O)Nc2ccnc(C(F)(F)F)c2)c1F` [Compound 78, 3-fluoro-4-(isopropylsulfamoyl)-1-methyl-N-[2-(trifluoromethyl)-4-pyridyl]pyrrole-2-carboxamide], for which the 50% cytotoxic concentration (CC50) at 4 days in series [1] was more than 25000 nM. Moreover, the negative-log EC50 (pEC50) with HBV is 6.59.

On to `Cn1cc(S(=O)(=O)NC2(C(F)(F)F)CCC2)c(F)c1C(=O)Nc1ccnc(F)c1` [Compound 169, 3-fluoro-N-(2-fluoro-4-pyridyl)-1-methyl-4-[[1-(trifluoromethyl)cyclobutyl]sulfamoyl]pyrrole-2-carboxamide], for which the CC50 at 4 days in series [1] was more than 25000 nM. The pEC50 in the series on HBV was 7.52.

Turning to `Cn1cc(S(=O)(=O)NC2(C)CC(F)(F)C2)c(F)c1C(=O)Nc1cc(Br)nc(Br)c1` [Compound 135, N-(2,6-dibromo-4-pyridyl)-4-[(3,3-difluoro-1-methyl-cyclobutyl)sulfamoyl]-3-fluoro-1-methyl-pyrrole-2-carboxamide], half-maximal cytotoxicity in series [1] (CC50 at 4 days) was put at 13000 nM. Moreover, in the series with HBV, the negative-log EC50 (pEC50) was 6.74.

In series [1], `Cc1cc(NC(=O)c2c(Cl)c(S(=O)(=O)N[C@H](C)C(C)(F)F)cn2C)cc(Cl)n1` [Compound 149, 3-chloro-N-(2-chloro-6-methyl-4-pyridyl)-4-[[(1R)-2,2-difluoro-1-methyl-propyl]sulfamoyl]-1-methyl-pyrrole-2-carboxamide] displayed a CC50 at 4 days of more than 25000 nM. In the series with HBV, this compound showed a pEC50 of 7.22.

As to `Cn1cc(S(=O)(=O)NC2(C)CC(F)(F)C2)c(F)c1C(=O)Nc1ccnc(Br)c1F` [Compound 131, N-(2-bromo-3-fluoro-4-pyridyl)-4-[(3,3-difluoro-1-methyl-cyclobutyl)sulfamoyl]-3-fluoro-1-methyl-pyrrole-2-carboxamide], the CC50 at 4 days in series [1] is more than 25000 nM. The negative logarithm of the EC50 (pEC50) in the series on HBV is 7.70.

For `C[C@@H](NS(=O)(=O)c1cn(C)c(C(=O)Nc2nc(F)c(F)cc2F)c1Cl)C(F)(F)F` [Compound 184, 3-chloro-1-methyl-4-[[(1R)-2,2,2-trifluoro-1-methyl-ethyl]sulfamoyl]-N-(3,5,6-trifluoro-2-pyridyl)pyrrole-2-carboxamide], the CC50 at 4 days in series [1] is more than 25000 nM. In addition, the pEC50 with HBV was 5.92.

By CC50 is commonly meant the concentration at which the toxic effect on the cells reaches its halfway point. Higher therefore signals better tolerance by the cells. As usually defined, the pEC50 is the EC50 on a negative log10 scale, so that one unit is a factor of ten. Higher therefore signals a small EC50.

(Values after US11078193B2 (priority 2014, dated 2021).)
